Results reported in patent US7226783B1, “Vanillin production” (David Michael & Co., Inc., priority 1997, dated 2007).

Columns and labels:
[1] = system: V. planifolia embryo culture; test: Uptake of exogenously added vanillin and transformation to vanillyl alcohol in embryo culture; assay type: cell-based, Vanilla planifolia
From the text: FIG. 3. Graph showing uptake of exogenously added vanillin and its transformation to vanillyl alcohol by vanillyl alcohol dehydrogenase in V. planifolia embryo culture. V(T)=vanillin in tissue; V(M)=vanillin in medium; VAL(T)=vanillyl alcohol in tissue; VAL(M)=vanillyl alcohol in medium.
Similarly, vanilla embryo culture that can be elicited by various elicitors to produce vanillin accumulates vanillyl alcohol as a final product. It is important to state at this stage that all the intermediates in the pathway are found mainly as glucosides.

[2] = system: V. planifolia tissue culture; test: Bio-conversion of 3,4-dihydroxybenzaldehyde to vanillin and vanillyl alcohol in tissue culture; assay type: cell-based, Vanilla planifolia; settings: addition of 1–5 mM pro-ald
Method: The following procedure was used for the bio-conversion of 3,4-dihydroxybenzaldehyde (“proaldehyde”) to vanillin and vanillyl alcohol in V. planifolia tissue culture. The medium used for cultures was G-medium as described above. Pro-ald solutions were prepared in G-medium, to final concentrations of 0.01 to 5 mM.
Cultures used for the bio-conversion were (1) clusters, (2) embryo culture, and (3) tissue homogenates of the above cultures. Cultures were of varying ages ranging from 0 to 1 month old. The cultures were allowed to remain under normal culture conditions for 0 to 15 days. As controls, untreated cultures were extracted and analyzed as described in Example 2.
Proaldehyde at different concentrations was added to the medium, either alone or in combination with the following treatments:
Bioreactor-grown cultures were used for the bio-conversions. Different kinds of impeller designs were used to increase or decrease shear stress on the cells prior to the addition of pro-ald.

[3] = system: alcohol dehydrogenase from Vanilla planifolia embryo culture (vanillyl alcohol dehydrogenase, VAD); test: Substrate specificity of vanillyl alcohol dehydrogenase (VAD); assay type: biochemical
Method: We have purified and characterized the activity of VAD that catalyze the reduction of vanillin to vanillyl alcohol. The enzyme was identified as an NADH or NADPH-dependent alcohol dehydrogenase. The purification protocol was as set forth below.
Crude enzyme extract: Tissue was homogenized in 0.05 M actetate-Na buffer pH 4.0 (in proportion, 1 g of the tissue and 5 ml of the buffer) in an ice bath, using Polytrone homogenizer, at 20,000 revolutions of the blade per min. The homogenate was centrifuged at 13000 g for 15 min at 4° C. and the supernatant served as the crude enzyme source.
Ammonium sulfate fractionation and molecular sieving: Crude enzyme extract (100 ml) was supplied with ammonium sulfate in an ice bath up to 60% of saturation (44.4 g of Ammonium sulphate per 100 ml). The precipitate was centrifuged and discarded. The supernatant was supplied with ammonium sulfate up to 90% of saturation (total 64.6 g per 100 ml of crude extract). The precipitate was collected (10 min centrifugation at 10,000 g), dissolved in 7 ml of extraction buffer and subjected to molecular sieving at Sephacryl S-300 High Load Column (LKB Pharmacia) 2.6×60 cm, in 0.1 M pH 4.0 acetate-Na buffer. The flow rate was adjusted to 1 ml/min and 5 ml fractions were collected. The protein elution profile was monitored at 280 nm. Five fractions (of a total of 50) containing dehydrogenase activity (130–155 ml of the column eluate) were collected.
The column was developed with 0.5 M Tris/HCL buffer pH 7.4 in 0.0–1.0 M NaCl gradient (total gradient volume—70 ml) and 2.5 ml fractions were collected. Vanillyl alcohol dehydrogenase was released from the column between 0.3–0.4 M NaCl. Fractions containing VAD activity were dialysed overnight against 0.05 M caetate-Na buffer pH 4.0 and concentrated up to 50 times using Minicon concentrating filters (Amicon). […]

Vanilla embryo culture = test: Feeding vanilla embryo culture with vanillin precursors, HPLC analysis of metabolites; assay type: cell-based, Vanilla planifolia
From the text: We derived a scheme for the vanillin biosynthetic pathway by analysis of metabolites in cultured embryos and by experiments with feeding of precursors and intermediates. This scheme is shown in FIG. 1 and the experiments are described below.
Embryo cultures of Vanilla planifolia were established as described in Example 1. The procedures used to extract phenolics from the cultured embryo cells and to analyze the extracts by high pressure liquid chromatography (HPLC) were as described generally by Havkin-Frenkel et al., Plant Cell, Tissue and Organ Culture 45: 133–136 (1996).
In the extraction procedure, 3 ml of 0.05 M sodium acetate buffer, pH 5.5, was added to about 1 gram of fresh culture. Samples were placed in boiling water for three minutes, then chilled. The cells were next homogenized in a Polytron blender for 1 minute at medium speed. A β-glucosidase solution was added to the homogenized cells to give a final concentration of 0.2%. Each sample was then incubated at 37° C. for 5 hr. Next, 17 ml of 95% ethanol was added, after which incubation at 37° C. was continued for an additional 24 hrs. The extract was then filtered and the ethanol evaporated. The filtrate was extracted twice using ethyl acetate, then extracted twice with ethyl acetate acidified to pH 3 with HCl. The extracts were combined and the ethyl acetate evaporated. The residue was dissolved in 1 ml of acidified methanol and filtered with a 0.45 μm syringe filter for HPLC analysis.
Extractions of metabolites from culture medium was similar to the cell extraction protocol. Five ml of spent medium was incubated in a β-glucosidase solution at 37° C. for 24 hrs. The medium was then extracted with ethyl acetate and the organic portions combined and evaporated, as for the cell extracts.
Metabolite levels were measured with a Hewlett Packard 1090L or a Waters HPLC with a UV detector at 280 nm. The Waters HPLC was also equipped with a diode array detector to confirm the identities of the various intermediates, and the identities of the various intermediates were further confirmed by mass spectrometry. The column was a Supelco C-18 DB column of dimensions 250 mm×4.6 mm and a particle size of 5 μm. The mobile phase contained methanol and water, each of which was acidified with 1.25% acetic acid. The flow rate was 1 ml/min, with a solvent gradient as follows: […]
Results of selected experiments in which precursors or elicitors were added to vanilla cultures are set forth below. These experiments were performed in accordance with the procedures set forth in Examples 1–4.

**Q.** Which results are given for `O=Cc1ccc(O)c(O)c1` [PRO-ALD, 3,4-dihydroxybenzaldehyde]?
**A.** fate of compound applied to the growing medium of embryo culture [1]: accumulation of vannilyl alcohol; increase of production of vanillin/vanillyl alcohol [2]: several hundred fold; substrate preference of VAD [3]: most preferred substrates; Activity with the compound as substrate, NADH ([3]; cofactor NADH): 1.89 nmoles · gfwt^−1 · min^−1; Activity with the compound as substrate, NADPH ([3]; cofactor NADPH): 2.11 nmoles · gfwt^−1 · min^−1; fate of exogenously fed compound in cultured embryos (Vanilla embryo culture; feeding experiments, Example 2): rapid methylation and conversion to vanillin or vanillyl alcohol; CA (p-coumaric acid) content of culture (Vanilla embryo culture; precursor fed at 1 mM): 285 mg/100 g dry wt.; HBA (p-hydroxybenzyl alcohol) content of culture (Vanilla embryo culture; precursor fed at 1 mM): 8950 mg/100 g dry wt.; PRO-ALD (3,4-dihydroxybenzaldehyde) content of culture (Vanilla embryo culture; precursor fed at 1 mM): 433 mg/100 g dry wt.; VN (vanillin) content of culture (Vanilla embryo culture; precursor fed at 1 mM): 16.7 mg/100 g dry wt.; VN ALC (vanillyl alcohol) content of culture (Vanilla embryo culture; precursor fed at 1 mM): 286.8 mg/100 g dry wt.
